The source of these data is patent US11643429B2, “Compounds and methods for the treatment of ocular disorders” (Azura Ophthalmics Ltd., priority 2019, dated 2023).

A short description of data set [1]: Rabbit Cornea Homogenate Stability Assay (Rabbit Cornea Esterase Assay). The settings on record: New Zealand White, 37° C., half-life of parent conjugate. The data set is classed as in vitro ADME. As to the method:
Determining Rabbit Cornea Homogenate stability of the test compounds was performed using HPLC-MS. The assay was performed at two concentrations of Rabbit Cornea Homogenate (0.15 mg/ml and 0.45 mg/ml total protein) so that any hydrolysis observed could be assigned as esterase dependent or not.
Five rabbit corneas (e.g. New Zealand Whites) of approx. 50 mg each were sliced and scraped with a scalpel and tweezers until reduced to small (1-3 mm), thin pieces. These were transferred into a tared vial and accurately weighed, then diluted with 10 volumes aqueous PBS pH7.4
Sample was cooled intermittently on ice and shear homogenized for 3 minutes, then centrifuged for 3 min at 3000 rpm. The supernatant was pipetted off into a vial, and total protein concentration determined at 280 nm. Sample was stored at −78° C.
10 mM Compound stocks were diluted to 100 μM in a 96 deep-well plate: 10 μl of 10 mM Compound stock was added to 990 μl 50 mM HEPES, pH7.5 buffer.
Compounds were further diluted to 10 μM: 100 μl of 100 μM compound was added to 900 μl 50 mM HEPES, pH7.5 buffer.
Esterase homogenate was diluted to 300 ng/μl and 900 ng/μl
A heater shaker was set to 37° C. Into a suitable 96 well plate (Run Plate), 75 μl of 300 or 900 ng/μl esterase homogenate was pipetted into each of the required wells (2 min, 5 min, 10 min, 20 min and 45 min). The plate was sealed and then warmed at 37° C. for 5 min. Another 96 well PCR plate was put on ice (Kill Plate). To this was added 100 μl of MeCN to each well, labelled 0 min 2 min, 5 min, 10 min, 20 min and 45 min. The plate was covered to minimise evaporation. For the T=0 sample only, to the 100 μl cold MeCN stop solution was added 50 μl of 300 or 900 ng/μl esterase homogenate followed by 50 μl of 10 μM compound solution For the remaining timepoints, 75 μl of 10 μM compound solution was added to the Run Plate starting from T=45 min row and ending with T=2 min row. At the appropriate time point, 100 μl of the assay mixture was added to the matching kill plate well containing 100 μl of cold MeCN. Samples were analysed as soon as practicable by LCMS (Waters Xevo TQ-S or Micromass Ultima). Parent conjugate and parent concentrations were determined against appropriate standard response curves and the half-life (T1/2) of the parent conjugate was calculated using the peak area of the parent conjugate at each time point in the linear region of the log-linear plot.

Data set [2] in a line: Aqueous Hydrolysis Stability Assay. In kind it is physicochemical. The settings on record: 50 mM HEPES buffer pH 7.5; HEPES pH 7.5, room temperature; read-out: T1/2 Aq Stability. On the procedure:
Determination of aqueous stability of the test compounds was performed using HIPLC-MS. A test compound 10 mM stock solution was prepared in DMSO. 10 μl of the DMSO stock solution was dissolved in 990 μl of 50 mM HEPES pH 7.5 buffer or 1:1 (v/v) of Acetonitrile:Water to make a 100 μM solution. Final DMSO concentration was 1%. The solution was kept at room temperature and injected without delay into the LCMS (Waters Xevo TQ-S or Micromass Ultima). Additional injections were performed at appropriate time points. Half-life (T1/2) of the parent conjugate was calculated using the peak area of the parent conjugate at each time point in the linear region of the log-linear plot.

Setting [3] is: pH 7.5, Rabbit Cornea Homogenate 0.15 mg/ml total protein, read-out: T1/2 Esterase (min) (0.15 mg/ml Homogenate).
Setting [4] is: pH 7.5, Rabbit Cornea Homogenate 0.45 mg/ml total protein, read-out: T1/2 Esterase (min) (0.45 mg/ml Homogenate).

Like-named read-outs stand apart in the source and are kept apart here.

Take `CC[C@H]1OC(=O)[C@H](C)[C@@H](O[C@H]2C[C@@](C)(OC)[C@@H](O)[C@H](C)O2)[C@H](C)[C@@H](O[C@@H]2O[C@H](C)C[C@H](N(C)C)[C@H]2OC(=O)SC[C@H](NC(C)=O)C(=O)OC)[C@](C)(O)C[C@@H](C)CN(C)[C@H](C)[C@@H](O)[C@]1(C)O` [Compound 14, Methyl N-acetyl-S-((((2S,3R,4S,6R)-4-(dimethylamino)-2-(((2R,3S,4R,5R,8R,10R,11R,12S,13S,14R)-2-ethyl-3,4,10-trihydroxy-13-(((2R,4R,5S,6S)-5-hydroxy-4-methoxy-4,6-dimethyltetrahydro-2H-pyran-2-yl)oxy)-3,5,6,8,10,12,14-heptamethyl-15-oxo-1-oxa-6-azacyclopentadecan-11-yl)oxy)-6-methyltetrahydro-2H-pyran-3-yl)oxy)carbonyl)-L-cysteinate]: the half-life at 5 µM in data set [1] (setting [3]) and in data set [1] (setting [4]) was above 120 min throughout. Further, the half-life at 100 µM in data set [2] was above 120 min.

Take `CC[C@H]1OC(=O)[C@H](C)[C@@H](O[C@H]2C[C@@](C)(OC)[C@@H](O)[C@H](C)O2)[C@H](C)[C@@H](O[C@@H]2O[C@H](C)C[C@H](N(C)C)[C@H]2OC(=O)CCOCCOCCOCCOCCO)[C@](C)(O)C[C@@H](C)CN(C)[C@H](C)[C@@H](O)[C@]1(C)O` [Compound 5, (2S,3R,4S,6R)-4-(Dimethylamino)-2-(((2R,3S,4R,5R,8R,10R,11R,12S,13S,14R)-2-ethyl-3,4,10-trihydroxy-13-(((2R,4R,5S,6S)-5-hydroxy-4-methoxy-4,6-dimethyltetrahydro-2H-pyran-2-yl)oxy)-3,5,6,8,10,12,14-heptamethyl-15-oxo-1-oxa-6-azacyclopentadecan-11-yl)oxy)-6-methyltetrahydro-2H-pyran-3-yl 1-hydroxy-3,6,9,12-tetraoxapentadecan-15-oate]: the half-life at 5 µM in data set [1] (setting [3]) was 21 min; in data set [1] (setting [4]), 24 min. Besides, the half-life at 100 µM in data set [2] is 72 min.

Regarding `CC[C@H]1OC(=O)[C@H](C)[C@@H](O[C@H]2C[C@@](C)(OC)[C@@H](O)[C@H](C)O2)[C@H](C)[C@@H](O[C@@H]2O[C@H](C)C[C@H](N(C)C)[C@H]2OC(=O)Cc2ccc(OC)cc2)[C@](C)(O)C[C@@H](C)CN(C)[C@H](C)[C@@H](O)[C@]1(C)O` [Compound 3, (2S,3R,4S,6R)-4-(Dimethylamino)-2-(((2R,3S,4R,5R,8R,10R,11R,12S,13S,14R)-2-ethyl-3,4,10-trihydroxy-13-(((2R,4R,5S,6S)-5-hydroxy-4-methoxy-4,6-dimethyltetrahydro-2H-pyran-2-yl)oxy)-3,5,6,8,10,12,14-heptamethyl-15-oxo-1-oxa-6-azacyclopentadecan-1-yl)oxy)-6-methyltetrahydro-2H-pyran-3-yl 2-(4-methoxyphenyl)acetate], the half-life at 5 µM amounted to 35 min in data set [1] (setting [3]) and 39 min in data set [1] (setting [4]). In addition, the half-life at 100 µM in data set [2] was 42 min.

Consider `CC[C@H]1OC(=O)[C@H](C)[C@@H](O[C@H]2C[C@@](C)(OC)[C@@H](OC(C)=O)[C@H](C)O2)[C@H](C)[C@@H](O[C@@H]2O[C@H](C)C[C@H](N(C)C)[C@H]2O)[C@](C)(O)C[C@@H](C)CN(C)[C@H](C)[C@@H](O)[C@]1(C)O` [Compound 13, (2S,3S,4R,6R)-6-(((2R,3S,4R,5R,8R,10R,11R,12S,13S,14R)-11-(((2S,3R,4S,6R)-4-(Dimethylamino)-3-hydroxy-6-methyltetrahydro-2H-pyran-2-yl)oxy)-2-ethyl-3,4,10-trihydroxy-3,5,6,8,10,12,14-heptamethyl-15-oxo-1-oxa-6-azacyclopentadecan-13-yl)oxy)-4-methoxy-2,4-dimethyltetrahydro-2H-pyran-3-yl acetate], for which the half-life at 5 µM in data set [1] (setting [3]) and in data set [1] (setting [4]) was above 120 min each time. The half-life at 100 µM in data set [2] is above 120 min.
